Changes are numbered by the printed parent chain. Each block holds one compound with its values, some of them ahead of it.
Experiments:
Assay in all cases: CRE-luciferase cAMP reporter (Dual-Glo), Hana3A cells
Format in all cases: cell-based
OR2J3 = target: T1, OR2J3 (Homo sapiens, UniProt O76001)
T1 construct: full-length ORF with N-terminal Rho tag, pCI, Hana3A cells with RTP1S; four clones with the same label
T1 sequence (O76001 1-311): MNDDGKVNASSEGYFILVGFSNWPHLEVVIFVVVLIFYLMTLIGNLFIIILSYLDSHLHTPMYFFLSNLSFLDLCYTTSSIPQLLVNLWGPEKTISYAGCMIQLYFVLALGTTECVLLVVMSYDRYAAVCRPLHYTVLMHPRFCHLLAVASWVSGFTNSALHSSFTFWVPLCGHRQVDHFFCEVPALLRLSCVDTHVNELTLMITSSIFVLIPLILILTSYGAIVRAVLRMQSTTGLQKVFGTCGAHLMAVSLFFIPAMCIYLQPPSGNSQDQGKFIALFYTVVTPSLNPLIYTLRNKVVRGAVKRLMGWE
Text: CRE-luciferase cAMP reporter (Dual-Glo), Hana3A cells on OR2J3

OR4F17 = target: T2, OR4F17 (Homo sapiens, UniProt Q8NGA8)
T2 construct: full-length ORF with N-terminal Rho tag, pCI, Hana3A cells with RTP1S
T2 sequence (Q8NGA8 1-305): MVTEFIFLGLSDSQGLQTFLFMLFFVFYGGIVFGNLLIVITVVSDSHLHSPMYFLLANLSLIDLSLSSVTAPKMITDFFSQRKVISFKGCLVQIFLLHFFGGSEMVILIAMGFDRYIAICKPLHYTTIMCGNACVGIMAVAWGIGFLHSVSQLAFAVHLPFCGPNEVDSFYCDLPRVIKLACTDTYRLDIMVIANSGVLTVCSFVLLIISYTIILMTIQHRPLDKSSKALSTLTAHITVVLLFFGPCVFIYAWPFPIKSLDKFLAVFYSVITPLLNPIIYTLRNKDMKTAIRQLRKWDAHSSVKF
Text: CRE-luciferase cAMP reporter (Dual-Glo), Hana3A cells on OR4F17

OR2T1 [1] = target: T3, OR2T1 (Homo sapiens, UniProt A0A126GWK9, I76V)
T3 construct: full-length ORF with N-terminal Rho tag, pCI, Hana3A cells with RTP1S; two clones with the same label
T3 sequence (A0A126GWK9 1-318 I76V): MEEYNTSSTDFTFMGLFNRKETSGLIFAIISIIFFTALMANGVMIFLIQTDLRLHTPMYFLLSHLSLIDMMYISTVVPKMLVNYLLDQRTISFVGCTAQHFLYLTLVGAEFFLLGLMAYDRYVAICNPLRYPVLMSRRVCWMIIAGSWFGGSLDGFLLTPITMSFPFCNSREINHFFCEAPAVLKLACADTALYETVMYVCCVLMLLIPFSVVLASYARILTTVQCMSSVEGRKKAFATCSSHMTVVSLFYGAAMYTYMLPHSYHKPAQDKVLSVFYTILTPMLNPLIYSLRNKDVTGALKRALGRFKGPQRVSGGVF
Text: (§1) CRE-luciferase cAMP reporter (Dual-Glo), Hana3A cells on OR2T1

OR2T1 [2] = target: T4, OR2T1 (Homo sapiens, UniProt A0A126GWK9)
T4 construct: full-length ORF with N-terminal Rho tag, pCI, Hana3A cells with RTP1S; two clones with the same label
T4 sequence (A0A126GWK9 1-318): T3 sequence (A0A126GWK9 1-318 I76V) with V76I
Text: as §1

OR56A4 = target: T5, OR56A4 (Homo sapiens, UniProt Q8NGH8)
T5 construct: full-length ORF with N-terminal Rho tag, pCI, Hana3A cells with RTP1S
T5 sequence (Q8NGH8 1-313): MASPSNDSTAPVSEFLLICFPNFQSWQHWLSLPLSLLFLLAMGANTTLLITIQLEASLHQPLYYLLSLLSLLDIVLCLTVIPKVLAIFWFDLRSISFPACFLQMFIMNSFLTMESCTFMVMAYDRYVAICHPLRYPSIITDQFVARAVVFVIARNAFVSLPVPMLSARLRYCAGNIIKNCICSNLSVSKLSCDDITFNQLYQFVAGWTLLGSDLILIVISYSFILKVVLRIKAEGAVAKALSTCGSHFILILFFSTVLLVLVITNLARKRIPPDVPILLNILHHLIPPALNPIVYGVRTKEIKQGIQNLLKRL
Text: CRE-luciferase cAMP reporter (Dual-Glo), Hana3A cells on OR56A4

OR10G4 = target: T6, OR10G4 (Homo sapiens, UniProt Q8NGN3, K295Q)
T6 construct: full-length ORF with N-terminal Rho tag, pCI, Hana3A cells with RTP1S; two clones with the same label
T6 sequence (Q8NGN3 1-311 K295Q): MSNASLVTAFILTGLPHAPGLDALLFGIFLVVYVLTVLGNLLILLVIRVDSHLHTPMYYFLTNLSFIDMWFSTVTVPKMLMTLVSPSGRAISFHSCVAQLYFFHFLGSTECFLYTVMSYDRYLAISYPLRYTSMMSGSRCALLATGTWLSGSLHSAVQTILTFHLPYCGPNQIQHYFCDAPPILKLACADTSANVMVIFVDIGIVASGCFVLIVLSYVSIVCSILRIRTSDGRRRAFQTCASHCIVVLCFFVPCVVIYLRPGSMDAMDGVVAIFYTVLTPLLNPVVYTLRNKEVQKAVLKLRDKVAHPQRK
Text: CRE-luciferase cAMP reporter (Dual-Glo), Hana3A cells on OR10G4

OR8D1 = target: T7, OR8D1 (Homo sapiens, UniProt Q8WZ84); conditions: agonist; rounded to whole log unit
T7 construct: full-length ORF with N-terminal Rho tag, pCI, Hana3A cells with RTP1S
T7 sequence (Q8WZ84 1-308): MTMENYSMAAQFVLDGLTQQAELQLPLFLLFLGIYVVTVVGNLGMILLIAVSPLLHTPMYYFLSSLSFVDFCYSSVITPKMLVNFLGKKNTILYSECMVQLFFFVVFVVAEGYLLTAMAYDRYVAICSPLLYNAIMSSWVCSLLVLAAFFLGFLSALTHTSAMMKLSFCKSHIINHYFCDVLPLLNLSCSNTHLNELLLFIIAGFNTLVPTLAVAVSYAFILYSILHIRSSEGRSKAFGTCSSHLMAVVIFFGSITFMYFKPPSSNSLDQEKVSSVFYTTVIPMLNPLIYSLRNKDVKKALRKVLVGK
Text: CRE-luciferase cAMP reporter (Dual-Glo), Hana3A cells on OR8D1

Compound: CCCCCOC(C)=O [compound 1078, n-amyl acetate]
EC50 (OR2J3): 1 µM

Compound: C[C@]12CCC(=O)C[C@@H]1CC[C@@H]1[C@@H]2CC[C@]2(C)C=CC[C@@H]12 [compound 1290, 5α-androst-16-en-3-one]
EC50 (OR4F17): 1000 µM

Compound: CCCC(=O)O [compound 1295, butyric acid]
EC50 (OR2T1 [1]): 100 µM
EC50 (OR2T1 [2]): 100 µM

Compound: CC/C=C\CCO [compound 1300, cis-3-hexen-1-ol]
EC50 (OR2J3): 10 µM

Compound: CC(=O)OC/C=C(\C)CCC=C(C)C [compound 1316, geranyl acetate]
EC50 (OR2J3): 1000 µM

Second part, the compound after the results:

EC50 (OR56A4): 0.1 µM
Compound: CCCCCCCCCCC=O [compound 1345, undecanal]

EC50 (OR10G4): 10 µM
Compound: COc1cc(C=O)ccc1O [compound 1346, vanillin]

EC50 (OR8D1): −5 log10 M
Compound: caramel furanone [compound 1396]
